# Read-outs that look alike come from different tables or passages of the source.
# Tests used:
# Assay type in all cases: in vivo
# [1] = test system: lambsquarters (Chenopodium album); test: Test C pre-/postemergence: lambsquarters
# Excerpt: (§1) Seeds of plant species selected from blackgrass (Alopecurus myosuroides), bromegrass, downy (downy bromegrass, Bromus tectorum), foxtail, green (green foxtail, Setaria viridis), ryegrass, Italian (Italian ryegrass, Lolium multiflorum), winter wheat (Triticum aestivum), wild oat (Avena fatua), galium (catchweed bedstraw, Galium aparine), bermudagrass (Cynodon dactylon), surinam grass (Brachiaria decumbens), cocklebur (common cocklebur, Xanthium strumarium), corn (Zea mays), large crabgrass (Digitaria sanguinalis), woolly cupgrass (Eriochloa villosa), foxtail, giant (giant foxtail, Setaria faberii), goosegrass (Eleusine indica), johnsongrass (Sorghum halepense), kochia (Kochia scoparia), lambsquarters (Chenopodium album), morningglory (Ipomoea coccinea), nightshade (eastern black nightshade, Solanum ptycanthum), nutsedge, yellow (yellow nutsedge, Cyperus esculentus), pigweed (Amaranthus retroflexus), ragweed (common ragweed, Ambrosia elation), soybean (Glycine max), common (oilseed) sunflower (Helianthus annuus), Russian thistle (Salsola kali) and velvetleaf (Abutilon theophrasti) were planted into a blend of loam soil and sand and treated preemergence with test chemicals formulated in a non-phytotoxic solvent mixture which included a surfactant.
# (§2) At the same time, plants selected from these crop and weed species and also barley (winter barley, Hordeum vulgare), canarygrass (Phalaris minor), chickweed (common chickweed, Stellaria media) windgrass (Apera spica-venti) and deadnettle (henbit deadnettle, Lamium amplexicaule) were planted in pots containing Redi-Earth® planting medium (Scotts Company, 14111 Scottslawn Road, Marysville, Ohio 43041) comprising spaghnum peat moss, vermiculite, wetting agent and starter nutrients and treated with postemergence applications of test chemicals formulated in the same manner. Plants ranged in height from 2 to 18 cm (1- to 4-leaf stage) for postemergence treatments.
# (§3) Treated plants and controls were maintained in a greenhouse for 13 to 15 days, after which time all species were compared to controls and visually evaluated. Plant response ratings, summarized in Table C, are based on a scale of 0 to 100 where 0 is no effect and 100 is complete control. A dash (-) response means no test result.
# [2] = test system: ragweed (common ragweed, Ambrosia elation); test: Test C pre-/postemergence: ragweed
# Excerpt: as §1, §2, §3
# [3] = test system: galium (catchweed bedstraw, Galium aparine); test: Test C pre-/postemergence: galium
# Procedure, shortened: (§4)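 Preemergence on seeds in loam/sand, postemergence on 2–18 cm (1–4-leaf) plants in peat-based medium; compounds in non-phytotoxic solvent with surfactant. After 13–15 days in greenhouse, visual rating versus controls, 0 (no effect) to 100 (complete control).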
# [4] = test system: velvetleaf (Abutilon theophrasti); test: Test C pre-/postemergence: velvetleaf
# Procedure, shortened: as §4
# corn (Zea mays) = test: Test A pre-/postemergence: corn
# Procedure, shortened: (§5)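 Seeds were sown in loam/sand blend and sprayed preemergence (directed soil spray) and, simultaneously, postemergence at 2–10 cm, one- to two-leaf stage, using compounds in non-phytotoxic solvent with surfactant. After ~10 days in greenhouse, injury was rated visually versus untreated controls, 0 (no effect) to 100 (complete control).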
# [5] = test system: johnsongrass (Sorghum halepense); test: Test C pre-/postemergence: johnsongrass
# Procedure, shortened: as §4
# kochia (Kochia scoparia) = test: Test C pre-/postemergence: kochia
# Excerpt: as §1, §2, §3
# [6] = test system: morningglory (Ipomoea spp.); test: Test A pre-/postemergence: morningglory; settings: for pest or weed control at 125 g/ha / pest or weed control at 500 g/ha: Ipomoea, 240 h
# Procedure, shortened: as §5
# [7] = test system: barnyardgrass (Echinochloa crus-galli); test: Test A pre-/postemergence: barnyardgrass; settings: for pest or weed control at 125 g/ha / pest or weed control at 500 g/ha: Echinochloa crus-galli, 240 h
# Procedure, shortened: as §5
# [8] = Postemergence, 16 g ai/ha, scale 0 to 100, 0 no effect, 100 complete control
# [9] = Postemergence, 31 g ai/ha, scale 0 to 100 (0 no effect, 100 complete control)
# [10] = Postemergence, 62 g ai/ha, scale 0 to 100 (0 no effect, 100 complete control)
# [11] = Postemergence, 125 g ai/ha, scale 0 to 100, 0 no effect, 100 complete control
# [12] = Preemergence, 16 g ai/ha, scale 0 (no effect) to 100 (complete control)
# [13] = Preemergence, 31 g ai/ha, scale of 0 to 100, 0 is no effect, 100 is complete control
# [14] = Preemergence, 62 g ai/ha, scale of 0 to 100, 0 is no effect, 100 is complete control
# [15] = Preemergence, 125 g ai/ha, scale 0 to 100, 0 no effect, 100 complete control
# [16] = Postemergence, 250 g ai/ha, scale 0 to 100
# [17] = Preemergence, 250 g ai/ha, scale 0 to 100, 0 no effect, 100 complete control
# [18] = Postemergence, 125 g ai/ha, 0 to 100 scale, 0 is no effect, 100 is complete control
# [19] = Postemergence, 500 g ai/ha, visual rating on 0 to 100 scale (0 no effect, 100 complete control), approximately ten days
# [20] = Preemergence, 125 g ai/ha, 0 to 100 scale (0 no effect, 100 complete control)
# [21] = Preemergence, 500 g ai/ha, 0 to 100 scale, 0 is no effect, 100 is complete control
structure (smiles),measurement,setting,value
"COc1nn(-c2ccc(C(F)(F)F)cc2)nc1Cc1ccnc(C(F)(F)F)c1 [Compound 15, 4-[[5-methoxy-2-[4-(trifluoromethyl)phenyl]-2H-1,2,3-triazol-4-yl]methyl]-2-(trifluoromethyl)pyridine]","Plant response rating, Lambsquarters",[1]; [8],100
same,"Plant response rating, Lambsquarters",[1]; [9],100
same,"Plant response rating, Lambsquarters",[1]; [10],100
same,"Plant response rating, Lambsquarters",[1]; [11],100
same,"Plant response rating, Lambsquarters",[1]; [12],95
same,"Plant response rating, Lambsquarters",[1]; [13],100
same,"Plant response rating, Lambsquarters",[1]; [14],100
same,"Plant response rating, Lambsquarters",[1]; [15],100
same,"Plant response rating, Ragweed",[2]; [8],45
same,"Plant response rating, Ragweed",[2]; [9],60
same,"Plant response rating, Ragweed",[2]; [10],60
same,"Plant response rating, Ragweed",[2]; [11],70
same,"Plant response rating, Galium",[3]; [8],50
same,"Plant response rating, Galium",[3]; [9],55
same,"Plant response rating, Galium",[3]; [10],55
same,"Plant response rating, Galium",[3]; [11],80
same,"Plant response rating, Galium",[3]; [12],50
same,"Plant response rating, Galium",[3]; [13],75
same,"Plant response rating, Galium",[3]; [14],95
same,"Plant response rating, Galium",[3]; [15],98
same,"Plant response rating, Velvetleaf",[4]; [8],60
same,"Plant response rating, Velvetleaf",[4]; [9],60
same,"Plant response rating, Velvetleaf",[4]; [10],60
same,"Plant response rating, Velvetleaf",[4]; [11],90
same,"Plant response rating, Velvetleaf",[4]; [12],0
same,"Plant response rating, Velvetleaf",[4]; [13],0
same,"Plant response rating, Velvetleaf",[4]; [14],20
same,"Plant response rating, Velvetleaf",[4]; [15],80
same,plant injury at 125 g/ha,"corn (Zea mays); Zea mays, post-emergence, 240 h, Postemergence, 125 g ai/ha, 0 to 100 scale, 0 is no effect, 100 is complete control, read-out: Corn plant response rating",30%
same,plant injury at 500 g/ha,"corn (Zea mays); Zea mays, post-emergence, 240 h, Postemergence, 500 g ai/ha, visual rating on 0 to 100 scale (0 no effect, 100 complete control), approximately ten days, read-out: Corn plant response rating",50%
same,"Corn plant response rating (crop injury, 0 = no effect, 100 = complete kill) at 125 g/ha","corn (Zea mays); Zea mays, pre-emergence, 240 h, Preemergence, 125 g ai/ha, 0 to 100 scale (0 no effect, 100 complete control)",20%
same,"Corn plant response rating (crop injury, 0 = no effect, 100 = complete kill) at 500 g/ha","corn (Zea mays); Zea mays, pre-emergence, 240 h, Preemergence, 500 g ai/ha, 0 to 100 scale, 0 is no effect, 100 is complete control",50%
same,"Plant response rating, Johnsongrass",[5]; [8],0
same,"Plant response rating, Johnsongrass",[5]; [9],45
same,"Plant response rating, Johnsongrass",[5]; [10],60
same,"Plant response rating, Johnsongrass",[5]; [11],80
same,"Plant response rating, Johnsongrass",[5]; [12],15
same,"Plant response rating, Johnsongrass",[5]; [13],55
same,"Plant response rating, Johnsongrass",[5]; [14],85
same,"Plant response rating, Johnsongrass",[5]; [15],90
same,"Plant response rating, Kochia",kochia (Kochia scoparia); [8],90
same,"Plant response rating, Kochia",kochia (Kochia scoparia); [9],95
same,"Plant response rating, Kochia",kochia (Kochia scoparia); [10],95
same,"Plant response rating, Kochia",kochia (Kochia scoparia); [11],95
same,"Plant response rating, Kochia",kochia (Kochia scoparia); [12],0
same,"Plant response rating, Kochia",kochia (Kochia scoparia); [13],70
same,"Plant response rating, Kochia",kochia (Kochia scoparia); [14],70
same,"Plant response rating, Kochia",kochia (Kochia scoparia); [15],85
same,pest or weed control at 125 g/ha,"[6]; post-emergence, Postemergence, 125 g ai/ha, 0 to 100 scale, 0 is no effect, 100 is complete control, read-out: Morningglory plant response rating",100%
same,pest or weed control at 500 g/ha,"[6]; post-emergence, Postemergence, 500 g ai/ha, visual rating on 0 to 100 scale (0 no effect, 100 complete control), approximately ten days, read-out: Morningglory plant response rating",100%
same,pest or weed control at 125 g/ha,"[6]; pre-emergence, Preemergence, 125 g ai/ha, 0 to 100 scale (0 no effect, 100 complete control), read-out: Plant response rating, Morningglory",60%
same,pest or weed control at 500 g/ha,"[6]; pre-emergence, Preemergence, 500 g ai/ha, 0 to 100 scale, 0 is no effect, 100 is complete control, read-out: Plant response rating, Morningglory",80%
same,pest or weed control at 125 g/ha,"[7]; post-emergence, Postemergence, 125 g ai/ha, 0 to 100 scale, 0 is no effect, 100 is complete control, read-out: Barnyardgrass plant response rating",90%
same,pest or weed control at 500 g/ha,"[7]; post-emergence, Postemergence, 500 g ai/ha, visual rating on 0 to 100 scale (0 no effect, 100 complete control), approximately ten days, read-out: Barnyardgrass plant response rating",90%
same,pest or weed control at 125 g/ha,"[7]; pre-emergence, Preemergence, 125 g ai/ha, 0 to 100 scale (0 no effect, 100 complete control), read-out: Plant response rating, Barnyardgrass",100%
same,pest or weed control at 500 g/ha,"[7]; pre-emergence, Preemergence, 500 g ai/ha, 0 to 100 scale, 0 is no effect, 100 is complete control, read-out: Plant response rating, Barnyardgrass",100%
Cc1nn(-c2ccc(C(F)(F)F)cn2)nc1Oc1ccnc(C(F)(F)F)c1 [Compound 23],"Plant response rating, Lambsquarters",[1]; [9],40
same,"Plant response rating, Lambsquarters",[1]; [10],40
same,"Plant response rating, Lambsquarters",[1]; [11],98
same,"Plant response rating, Lambsquarters",[1]; [16],98
same,"Plant response rating, Lambsquarters",[1]; [13],95
same,"Plant response rating, Lambsquarters",[1]; [14],98
same,"Plant response rating, Lambsquarters",[1]; [15],98
same,"Plant response rating, Lambsquarters",[1]; [17],100
same,"Plant response rating, Ragweed",[2]; [9],10
same,"Plant response rating, Ragweed",[2]; [10],10
same,"Plant response rating, Ragweed",[2]; [11],20
same,"Plant response rating, Ragweed",[2]; [16],20
same,"Plant response rating, Ragweed",[2]; [13],5
same,"Plant response rating, Ragweed",[2]; [14],20
same,"Plant response rating, Ragweed",[2]; [15],20
same,"Plant response rating, Ragweed",[2]; [17],60
same,"Plant response rating, Galium",[3]; [9],85
same,"Plant response rating, Galium",[3]; [10],85
same,"Plant response rating, Galium",[3]; [11],90
same,"Plant response rating, Galium",[3]; [16],90
same,"Plant response rating, Galium",[3]; [13],80
same,"Plant response rating, Galium",[3]; [14],95
same,"Plant response rating, Galium",[3]; [15],100
same,"Plant response rating, Galium",[3]; [17],100
same,"Plant response rating, Velvetleaf",[4]; [9],15
same,"Plant response rating, Velvetleaf",[4]; [10],25
same,"Plant response rating, Velvetleaf",[4]; [11],40
same,"Plant response rating, Velvetleaf",[4]; [16],50
same,"Plant response rating, Velvetleaf",[4]; [13],5
same,"Plant response rating, Velvetleaf",[4]; [14],25
same,"Plant response rating, Velvetleaf",[4]; [15],80
same,"Plant response rating, Velvetleaf",[4]; [17],100
same,Corn plant response rating,corn (Zea mays); [18],30
same,Corn plant response rating,corn (Zea mays); [19],50
same,"Plant response rating, Corn",corn (Zea mays); [20],10
same,"Plant response rating, Corn",corn (Zea mays); [21],40
same,"Plant response rating, Johnsongrass",[5]; [9],5
same,"Plant response rating, Johnsongrass",[5]; [10],10
same,"Plant response rating, Johnsongrass",[5]; [11],10
same,"Plant response rating, Johnsongrass",[5]; [16],20
same,"Plant response rating, Johnsongrass",[5]; [13],55
same,"Plant response rating, Johnsongrass",[5]; [14],75
same,"Plant response rating, Johnsongrass",[5]; [15],95
same,"Plant response rating, Johnsongrass",[5]; [17],98
same,"Plant response rating, Kochia",kochia (Kochia scoparia); [9],65
same,"Plant response rating, Kochia",kochia (Kochia scoparia); [10],75
same,"Plant response rating, Kochia",kochia (Kochia scoparia); [11],80
same,"Plant response rating, Kochia",kochia (Kochia scoparia); [16],85
same,"Plant response rating, Kochia",kochia (Kochia scoparia); [13],95
same,"Plant response rating, Kochia",kochia (Kochia scoparia); [14],95
same,"Plant response rating, Kochia",kochia (Kochia scoparia); [15],95
same,"Plant response rating, Kochia",kochia (Kochia scoparia); [17],100
same,Morningglory plant response rating,[6]; [18],90
same,Morningglory plant response rating,[6]; [19],100
same,"Plant response rating, Morningglory",[6]; [20],80
same,"Plant response rating, Morningglory",[6]; [21],80
same,Barnyardgrass plant response rating,[7]; [18],70
same,Barnyardgrass plant response rating,[7]; [19],90
same,"Plant response rating, Barnyardgrass",[7]; [20],70
same,"Plant response rating, Barnyardgrass",[7]; [21],100
